The nature of the data set: solvent given as SMILES.

In the Deep4Chem optical property database one finds emission maximum data, which are given here for 39 compounds.

SMILES strings stand for the structures. Where “and” joins values, the source holds several entries; their conditions need not be identical. Identical values can stand only once.

In the case of `Cc1c2oc3c(C)c(N)cc(C(=O)NC4OC(=O)C(C(C)C)N(C)C(=O)CN(C)C(=O)C5CCCN5C(=O)C(C(C)C)NC4=O)c3nc-2c(C(=O)NC2OC(=O)C(C(C)C)N(C)C(=O)CN(C)C(=O)C3CCCN3C(=O)C(C(C)C)NC2=O)c(N)c1=O` (stereo not given), the emission maximum came to 608.36 nm (in C1CCOC1); 634.41 nm (in CC#N); 638.86 nm (in CC(=O)O); 609.72 nm (in CC(C)=O); 669.51 nm (in CCCCO); 624.05 nm (in CCCCOC(C)=O). In addition, the emission maximum is, setting by setting: (in CCCO) 658.62 nm; (in CCN(CC)CC) 597.77 nm; (in CCO) 669 nm; (in CCOC(C)=O) 598.75 nm; (in CN(C)C=O) 640.78 nm; (in CO) 673.84 nm. Further, the emission maximum came to 637.01 nm (in CS(C)=O); 613.07 nm (in Cc1ccccc1); 620.11 nm (in ClC(Cl)Cl); 609.65 nm (in ClCCCl); 674.17 nm (in O); 623.24 nm (in O=[N+]([O-])c1ccccc1). Also, the emission maximum is recorded as 621.25 nm (in c1ccccc1) and 648.07 nm (in c1ccncc1).

In the case of `C#CCn1c2ccccc2c2cc(/C=C/C3=[N+]4C(=C(c5ccc(I)cc5)c5c(C)cc(/C=C/c6ccc7c(c6)c6ccccc6n7CC#C)n5[B-]4(F)F)C(C)=C3)ccc21`, the emission maximum (in CC#N) was 688 nm, the emission maximum (in CS(C)=O) came out at 703 nm and the emission maximum (in ClC(Cl)Cl) is recorded as 691 nm.

In turn, `CC1(C)c2ccccc2N(c2ccc3c(ccc4nc5ccc6cc(N7c8ccccc8C(C)(C)c8ccccc87)ccc6c5nc43)c2)c2ccccc21` came in with an emission maximum (in C1CCCCC1) of 484 nm, an emission maximum (in C1CCOC1) of 661 nm, an emission maximum (in Cc1ccccc1) of 552 nm and an emission maximum (in ClCCl) of 699 nm.

For `c1ccc(Cn2c3sccc3c3c4nsnc4c4c5ccsc5n(Cc5ccccc5)c4c32)cc1`, the emission maximum by setting is: (in Cc1ccccc1) 508 nm; (in ClCCl) 541 nm.

The compound `c1ccc2c(-n3cnc4ccccc43)cccc2c1` displayed an emission maximum (in C1CCCCC1) of 358 nm; an emission maximum (in C1CCOC1) of 359 nm; an emission maximum (in CC#N) of 362 nm; an emission maximum (in CCO) of 360 nm; an emission maximum (in CCOC(C)=O) of 361 nm; an emission maximum (in CCOCC) of 361 nm. Further, the emission maximum reads like this: (in CO) 360 nm; (in Cc1ccccc1) 359 nm; (in ClC(Cl)Cl) 362 nm.

In the case of `CCCCCCCCCCCCC(CCCCCCCCCC)Cn1c2cc(/C=C/C=C(C#N)C#N)c3cccc4c5cccc6c(/C=C/C=C(C#N)C#N)cc1c(c65)c2c34` (stereo not given), the emission maximum by setting is: (in C1CCCCC1) 648 nm; (in CC#N) 702 nm; (in Cc1ccccc1) 668 nm; (in ClCCl) 697 nm.

`O=Cc1nc2ccc(C#Cc3ccc(N(c4ccccc4)c4ccccc4)cc3)cc2s1` returned an emission maximum (in Cc1ccccc1) of 519 nm.

In the case of `Cc1ccc2ccc3cccc4ccc1c2c34`, the emission maximum amounted to 377 nm (in CCCCCC), 377 nm (in CO) and 378 nm (in ClCCl).

Consider `COC(=O)C(NC(=O)CCNc1cccc2ccccc12)C(C)C` (stereo not given), for which, for the setting “in CCO”, the emission maximum was 415 nm.

Turning to `Cc1cc(C)c(C2=C3C=CC(c4cccc5ccccc45)=[N+]3[B-](F)(F)n3c2ccc3-c2cccc3ccccc23)c(C)c1`, the emission maximum (in ClC(Cl)Cl) was 601 nm.

Regarding `CCOC(=O)CC[N+]1=c2cc3c(cc2CCC1)=Cc1c(c2cc4c5c(c2oc1=O)CCCN5CCC4)O3`, the emission maximum (in CC#N) worked out at 687 nm, the emission maximum (in CO) was 681 nm, the emission maximum (in ClCCl) is recorded as 676 nm and the emission maximum (in O) is 688 nm.

For `C[Si]1(C)C2=C(c3ccc(N(c4ccccc4)c4ccccc4)cc31)P(=O)(c1ccccc1)c1ccccc12` (stereo not given), the emission maximum is given as 611 nm (in CC#N), 624 nm (in CO) and 544 nm (in Cc1ccccc1).

On to `CC1=[N+]2C(=C(c3ccc(C(=O)c4ccccc4)cc3)c3ccc(C)n3[B-]2(F)F)C=C1c1cc2n(c1)[B-](F)(F)[N+]1=CC=CC1=C2c1c(C)cc(C)cc1C`, for which the emission maximum is, setting by setting: (in C1CCCCC1) 645 nm; (in CCOC(C)=O) 664 nm.

Where the note is “in O”, `CC[n+]1nc2cc3c4c(c2c2ccccc21)CCCN4CCC3` gave an emission maximum of 570 nm.

For the compound `CC(C)(C)c1cc2ccc3c(-c4ccc(N(c5ccccc5)c5ccccc5)cc4)ccc4c5nc6cc(C#N)c(C#N)cc6nc5c(c1)c2c34`, the emission maximum reads like this: (in C1CCOC1) 839.18 nm; (in CCCCCC) 575.31 nm; (in Cc1ccccc1) 613 nm; (in ClC(Cl)Cl) 784.69 nm; (in ClCCl) 839.18 nm.

For `CSc1ccc(/C=C/c2ccncn2)cc1`, the emission maximum (in ClCCl) is on record as 435 nm.

Regarding `Cc1ccc([C@@H]2C[C@](O)(c3ccccn3)C[C@](O)(c3ccccn3)[C@H]2C(=O)c2ccc(N(c3ccccc3)c3ccccc3)cc2)cc1`, the emission maximum by setting is: (in C1CCOC1) 495 nm; (in CC#N) 525 nm; (in CCO) 511 nm; (in CCOC(C)=O) 496 nm; (in CN(C)C=O) 523 nm; (in ClCCl) 516 nm. This compound gave an emission maximum (in c1ccccc1) of 466 nm.

Consider `CC(C)[Si]1(C(C)C)c2cc(C#N)ccc2-c2ccc(N(C)C)cc21`, for which the emission maximum by setting is: (in C1CCCCC1) 410 nm; (in CC#N) 464 nm; (in CCO) 456 nm; (in CCOCC) 423 nm; (in CS(C)=O) 473 nm; (in ClCCl) 442 nm. For the same compound, where the note is “in c1ccccc1”, the emission maximum is given as 422 nm.

In the case of `c1ccc(-c2nc(-c3ccc(N4c5ccccc5C(c5ccccc5)(c5ccccc5)c5ccccc54)cc3)cc(-c3ccc(N4c5ccccc5C(c5ccccc5)(c5ccccc5)c5ccccc54)cc3)n2)cc1`, the emission maximum runs as follows: (in Cc1ccccc1) 456 nm; (in O=P(c1ccccc1)(c1ccccc1)c1ccc2oc3ccc(P(=O)(c4ccccc4)c4ccccc4)cc3c2c1) 462 nm.

For `c1cc2ccc1-c1ccc(cc1)-c1sc(c3c1OCCO3)-c1ccc(cc1)-c1ccc(cc1)-c1sc(c3c1OCCO3)-c1ccc(cc1)-c1ccc(cc1)-c1sc-2c2c1OCCO2`, the emission maximum (in C1CCOC1) is 555 nm.

Regarding `O=c1oc2ccc3ccccc3c2nc1-c1ccccc1`, the emission maximum is, setting by setting: (in CC#N) 475 nm; (in CCCCCC) 453 nm; (in CO) 476 nm; (in c1ccccc1) 467 nm and 460 nm.

On to `Cc1cccc2nc3c(=O)[nH]c(=O)[nH]c3nc12`, for which the emission maximum runs as follows: (in C1COCCO1) 437 nm; (in CC#N) 449 nm; (in CCO) 465 nm; (in CO) 469 nm; (in ClCCCl) 450 nm; (in O) 495 nm.

The compound `CC[N+]1(CC)CN2C(=N1)C(C(=O)O)=Cc1cc(OC)ccc12` yielded an emission maximum (in O) of 491 nm.

For the setting “in C1CCOC1”, `c1ccc(/C(=C(\c2ccccc2)c2ccccc2-c2ccc(-c3ccccc3)cc2)c2ccccc2-c2ccc(-c3ccccc3)cc2)cc1` returned an emission maximum of 492 nm.

Regarding `COc1cc2c(cc1F)c(=O)c1cc(F)c(OC)cc1n2-c1ccccc1`, the emission maximum (in CCO) was found to be 424 nm.

Where the note is “in ClC(Cl)Cl”, `COc1ccc2c(C#N)cc3ccc4cc(C#N)c5ccc(OC)cc5c4c3c2c1` displayed an emission maximum of 426 nm.

Compound `c1ccc(-c2nc3ccccc3nc2-c2ccc(-n3c4ccccc4c4ccccc43)cc2)cc1` came in with an emission maximum (in Cc1ccccc1) of 434 nm.

`CCCCN(CCCC)c1ccc(C#Cc2cc(C#Cc3ccc(C#N)cc3)c(C#Cc3ccc(C#N)cc3)cc2C#Cc2ccc(N(CCCC)CCCC)cc2)cc1`: the emission maximum runs as follows: (in ClCCl) 563 nm; (in c1ccccc1) 508 nm.

For the compound `C[Si](C)(C)c1ccc(-c2ccc(-c3ccc(-c4ccc(-c5ccc([Si](C)(C)C)cc5)s4)c4nsnc34)s2)cc1`, the emission maximum (in C1CCOC1) was 620 nm.

With `CCn1c(-c2ccc(-c3cccc4ccccc34)cc2)c(-c2ccc3ccccc3c2)c(-c2ccc3ccccc3c2)c1-c1ccc(-c2cccc3ccccc23)cc1`, under “in CCOC(C)=O”, the emission maximum was found to be 429 nm.

Compound `CCn1c2ccccc2c2ccc(C#N)cc21` came in with an emission maximum (in C1CCCCC1) of 373 nm.

Where the note is “in CCO”, `O=c1c2cc(F)c(O)cc2oc2cc(N3CCCCC3)c(F)cc12` showed an emission maximum of 445 nm.

In the case of `O=c1oc2cc3c(cc2cc1/C=C/c1ccccc1)OCO3`, the emission maximum (in CC#N) is on record as 469 nm.

With `COc1ccc(N2c3cc(OC)ccc3N=c3cc4c(cc32)=Nc2cc(C(C)(C)C)cc(C(C)(C)C)c2O4)cc1`, the emission maximum runs as follows: (in CC#N) 624 nm; (in CCCCCC) 587 nm; (in CO) 633 nm.

The compound `Cc1ccccc1N(c1ccc(C(C)(C)C)cc1)c1ccc2ccc3c(N(c4ccc(C(C)(C)C)cc4)c4ccccc4C)ccc4ccc1c2c43` showed an emission maximum (in Cc1ccccc1) of 462 nm.

`COc1c2ccccc2c(OC)c2c(C#CC(C)(C)C)c3cc4sccc4cc3c(C#CC(C)(C)C)c12` came in with an emission maximum (in ClCCl) of 634 nm.

As for `CCCCC1=Cc2c3ccc4cccc5ccc(c6cc(-c7ccc(N(c8ccccc8)c8ccccc8)cc7)n(c26)P1(=O)c1ccccc1)c3c45` (stereo not given), the emission maximum by setting is: (in C1CCCCC1) 502 nm; (in C1CCOC1) 541 nm; (in C1COCCO1) 526 nm; (in CC#N) 572 nm; (in CC(C)=O) 560 nm; (in CO) 563 nm. Moreover, the emission maximum (in Cc1ccccc1) is on record as 518 nm, the emission maximum (in ClC(Cl)Cl) turned out to be 537 nm and the emission maximum (in ClCCl) was 551 nm.

Regarding `C=CCOc1nnc(OCCC(F)(F)C(F)(F)C(F)(F)C(F)(F)C(F)(F)C(F)(F)C(F)(F)C(F)(F)F)nn1`, the emission maximum (in ClCCl) came to 572 nm and the emission maximum (in OCC(F)(F)F) is 560 nm.

For `c1ccc(COc2cc(C[n+]3ccc(-c4cc[n+](Cc5cc(OCc6ccccc6)cc(OCc6ccccc6)c5)cc4)cc3)cc(OCc3ccccc3)c2)cc1`, for the setting “in CC#N”, the emission maximum came out at 365 nm.
